Results as given in patent US9234025B2, “Extracellular allosteric inhibitor binding domain from a tyrosine kinase receptor” (SANOFI, priority 2009, dated 2016).

Tested on: FGFR2
Assay: FRS2, Erk1/2 and PLCγ phosphorylation in FGFR2-transfected HEK293 cells (western blot)
Assay type: cell-based, human
Settings: compound at 1 μM
Description: HEK293 cells were either transiently of stably transfected (using FuGENE 6, Roche) with hFGFR2IIIca or hFGFR2IIIca-Y328D cloned in pcDNA3 (Invitrogen). Stably transfected cells were grown in G418 (400 μg/ml) containing medium. Before stimulation, the cells were starved overnight in DMEM (0% serum), and pre-incubated with […] at the required concentration. The cells were subsequently stimulated with FGF2 (concentration between 0.5-10 ng/ml) for 5 min at 37° C. with or without SSR or SU5402 at 1 μM. After washing with ice-cold phosphate-buffered saline containing phosphatase inhibitors (Roche), cells were lysed in RIPA buffer (Tris 30 mM HCl pH 7.5, 150 mM NaCl, 1 mM EDTA, 1% triton-X, 0.5% w/v deoxycholate, containing phophatase and protease inhibitors as described by the manufacturer (Roche)). Cell lysates were centrifuged at 12,000 g for 10 min, and the supernatants were collected. Proteins were separated on Novex polyacrylamide gels (Invitrogen, Carlsbad, Calif.) and subsequently transferred onto Hybond ECL nitrocellulose membranes (Amersham Pharmacia). Following incubation with 5% non-fat milk powder in PBS, the membranes were incubated overnight at 4° C. with the following antibodies: phospho-ERK1/2 (CST:9101), phospho-FRS2 (CST:3861), phospho-PLCγ (CST:2821) and FGFR2 (F0300, Sigma).
In order to evaluate SSR effect on FGFR-controlled phosphor-signalling, HEK293 cells have been transfected with FGFR2 and the two main pathways following FGFR autophosphorylation, PLCγ and FRS2, have been studied by western blot in comparison with a published FGFR tyrosine kinase inhibitor SU5402 described to inhibit FGFR-dependent FRS2 and PLCγ cascades (Zhen et al., Oncogene 2007). In such cells, FGF induces FRS2, Erk1/2 and PLCγ phosphorylation. […] More generally, these differences in phosphorylation can be used as reporter to evaluate allosteric modulators.

Cc1c[nH]c(/C=C2\C(=O)Nc3ccccc32)c1CCC(=O)O [SU5402]
blocks: FGF-induced Erk1/2 phosphorylation | FGF-induced FRS2 phosphorylation | FGF-induced PLCγ phosphorylation
